Data as given in PubChem BioAssay (NCI).
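Five concentrations, 48 hours, 96-well plates. TGI: concentration producing complete growth inhibition.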

How the values were obtained:
Assay in all cases: inhibition of tumour cell growth, NCI panel, 48 h
786-0 renal = test system: 786-0 renal
A549 NSCLC = test system: A549 NSCLC
ACHN renal = test system: ACHN renal
CAKI-1 renal = test system: CAKI-1 renal
CCRF-CEM leukemia = test system: CCRF-CEM leukemia
COLO 205 colon = test system: COLO 205 colon
DLD-1 colon = test system: DLD-1 colon
DMS 114 small cell lung = test system: DMS 114 small cell lung
DMS 273 small cell lung = test system: DMS 273 small cell lung
EKVX NSCLC = test system: EKVX NSCLC
HCC-2998 colon = test system: HCC-2998 colon
HCT-116 colon = test system: HCT-116 colon
HCT-15 colon = test system: HCT-15 colon
HL-60(TB) leukemia = test system: HL-60(TB) leukemia
HOP-18 NSCLC = test system: HOP-18 NSCLC
HOP-62 NSCLC = test system: HOP-62 NSCLC
HT29 colon = test system: HT29 colon
K-562 leukemia = test system: K-562 leukemia
KM12 colon = test system: KM12 colon
LOX IMVI melanoma = test system: LOX IMVI melanoma
M14 melanoma = test system: M14 melanoma
M19-MEL melanoma = test system: M19-MEL melanoma
MALME-3M melanoma = test system: MALME-3M melanoma
MOLT-4 leukemia = test system: MOLT-4 leukemia
NCI-H226 lung = test system: NCI-H226 lung
NCI-H23 lung = test system: NCI-H23 lung
NCI-H460 lung = test system: NCI-H460 lung
OVCAR-3 ovarian = test system: OVCAR-3 ovarian
OVCAR-4 ovarian = test system: OVCAR-4 ovarian
OVCAR-5 ovarian = test system: OVCAR-5 ovarian
OVCAR-8 ovarian = test system: OVCAR-8 ovarian
RPMI-8226 leukemia = test system: RPMI-8226 leukemia
SF-268 CNS = test system: SF-268 CNS
SF-295 CNS = test system: SF-295 CNS
SF-539 CNS = test system: SF-539 CNS
SK-MEL-2 melanoma = test system: SK-MEL-2 melanoma
SK-MEL-28 melanoma = test system: SK-MEL-28 melanoma
SK-MEL-5 melanoma = test system: SK-MEL-5 melanoma
SN12C renal = test system: SN12C renal
SNB-19 CNS = test system: SNB-19 CNS
SNB-75 CNS = test system: SNB-75 CNS
SNB-78 CNS = test system: SNB-78 CNS
SR leukemia = test system: SR leukemia
SW-620 colon = test system: SW-620 colon
TK-10 renal = test system: TK-10 renal
UACC-257 melanoma = test system: UACC-257 melanoma
UO-31 renal = test system: UO-31 renal
XF 498 CNS = test system: XF 498 CNS
A498 renal = test system: A498 renal
HOP-92 NSCLC = test system: HOP-92 NSCLC
IGROV1 ovarian = test system: IGROV1 ovarian
KM20L2 colon = test system: KM20L2 colon
LXFL 529 NSCLC = test system: LXFL 529 NSCLC
RXF 393 renal = test system: RXF 393 renal
SK-OV-3 ovarian = test system: SK-OV-3 ovarian
U251 CNS = test system: U251 CNS
UACC-62 melanoma = test system: UACC-62 melanoma

Q: What does the source list for `Cc1cc([N+](=O)[O-])c(C)c2c1[nH]c1ccc(O)cc12`?
A: TGI (786-0 renal): > 100 µM; TGI (A549 NSCLC): > 100 µM; TGI (ACHN renal): > 100 µM; TGI (CAKI-1 renal): > 100 µM; TGI (CCRF-CEM leukemia): > 100 µM; TGI (COLO 205 colon): > 100 µM; TGI (DLD-1 colon): 43.7 µM; TGI (DMS 114 small cell lung): > 100 µM; TGI (DMS 273 small cell lung): > 100 µM; TGI (EKVX NSCLC): > 100 µM; TGI (HCC-2998 colon): > 100 µM; TGI (HCT-116 colon): > 100 µM; TGI (HCT-15 colon): > 100 µM; TGI (HL-60(TB) leukemia): 63 µM; TGI (HOP-18 NSCLC): > 100 µM; TGI (HOP-62 NSCLC): > 100 µM; TGI (HT29 colon): > 100 µM; TGI (K-562 leukemia): > 100 µM; TGI (KM12 colon): > 100 µM; TGI (LOX IMVI melanoma): > 100 µM; TGI (M14 melanoma): > 100 µM; TGI (M19-MEL melanoma): > 100 µM; TGI (MALME-3M melanoma): > 100 µM; TGI (MOLT-4 leukemia): > 100 µM; TGI (NCI-H226 lung): > 100 µM; TGI (NCI-H23 lung): > 100 µM; TGI (NCI-H460 lung): > 100 µM; TGI (OVCAR-3 ovarian): > 100 µM; TGI (OVCAR-4 ovarian): > 100 µM; TGI (OVCAR-5 ovarian): > 100 µM; TGI (OVCAR-8 ovarian): > 100 µM; TGI (RPMI-8226 leukemia): 79 µM; TGI (SF-268 CNS): > 100 µM; TGI (SF-295 CNS): > 100 µM; TGI (SF-539 CNS): > 100 µM; TGI (SK-MEL-2 melanoma): > 100 µM; TGI (SK-MEL-28 melanoma): > 100 µM; TGI (SK-MEL-5 melanoma): > 100 µM; TGI (SN12C renal): > 100 µM; TGI (SNB-19 CNS): > 100 µM; TGI (SNB-75 CNS): > 100 µM; TGI (SNB-78 CNS): > 100 µM; TGI (SR leukemia): > 100 µM; TGI (SW-620 colon): > 100 µM; TGI (TK-10 renal): > 100 µM; TGI (UACC-257 melanoma): > 100 µM; TGI (UO-31 renal): > 100 µM; TGI (XF 498 CNS): > 100 µM

Q: For `Cn1cnc([N+](=O)[O-])c1Sc1nc2ncccc2[nH]1`, which TGI (786-0 renal) is on record?
A: The TGI was > 100 µM.

Q: And the TGI (A498 renal)?
A: Its TGI is > 100 µM.

Q: And the TGI (A549 NSCLC)?
A: The TGI was > 100 µM.

Q: What about the TGI (ACHN renal) of the same compound?
A: The TGI was > 100 µM.

Q: And the TGI (CAKI-1 renal)?
A: The TGI was 85.6 µM.

Q: What about the TGI (CCRF-CEM leukemia) of the same compound?
A: Its TGI is 64.2 µM.

Q: And the TGI (COLO 205 colon)?
A: Its TGI is 56.5 µM.

Q: And the TGI (DLD-1 colon)?
A: The TGI was > 100 µM.

Q: What about the TGI (DMS 114 small cell lung) of the same compound?
A: The TGI was 74.4 µM.

Q: What about the TGI (EKVX NSCLC) of the same compound?
A: The TGI was > 100 µM.

Q: And the TGI (HCC-2998 colon)?
A: The TGI was > 100 µM.

Q: What about the TGI (HCT-116 colon) of the same compound?
A: The TGI was > 100 µM.

Q: What about the TGI (HCT-15 colon) of the same compound?
A: The TGI was > 100 µM.

Q: What about the TGI (HL-60(TB) leukemia) of the same compound?
A: The TGI was 62.6 µM.

Q: What about the TGI (HOP-18 NSCLC) of the same compound?
A: The TGI was > 100 µM.

Q: And the TGI (HOP-62 NSCLC)?
A: Its TGI is > 100 µM.

Q: What about the TGI (HOP-92 NSCLC) of the same compound?
A: The TGI was > 100 µM.

Q: What about the TGI (HT29 colon) of the same compound?
A: The TGI was > 100 µM.

Q: And the TGI (IGROV1 ovarian)?
A: Its TGI is > 100 µM.

Q: What about the TGI (K-562 leukemia) of the same compound?
A: Its TGI is > 100 µM.

Q: What about the TGI (KM12 colon) of the same compound?
A: Its TGI is > 100 µM.

Q: What about the TGI (KM20L2 colon) of the same compound?
A: Its TGI is > 100 µM.

Q: What about the TGI (LOX IMVI melanoma) of the same compound?
A: Its TGI is > 100 µM.

Q: And the TGI (LXFL 529 NSCLC)?
A: The TGI was > 100 µM.

Q: And the TGI (M14 melanoma)?
A: The TGI was > 100 µM.

Q: And the TGI (MALME-3M melanoma)?
A: Its TGI is > 100 µM.

Q: And the TGI (MOLT-4 leukemia)?
A: Its TGI is > 100 µM.

Q: And the TGI (NCI-H226 lung)?
A: The TGI was > 100 µM.

Q: What about the TGI (NCI-H23 lung) of the same compound?
A: Its TGI is > 100 µM.

Q: And the TGI (NCI-H460 lung)?
A: Its TGI is > 100 µM.

Q: What about the TGI (OVCAR-3 ovarian) of the same compound?
A: The TGI was > 100 µM.

Q: And the TGI (OVCAR-4 ovarian)?
A: Its TGI is > 100 µM.

Q: And the TGI (OVCAR-5 ovarian)?
A: Its TGI is > 100 µM.

Q: What about the TGI (OVCAR-8 ovarian) of the same compound?
A: Its TGI is > 100 µM.

Q: And the TGI (RPMI-8226 leukemia)?
A: The TGI was > 100 µM.

Q: What about the TGI (RXF 393 renal) of the same compound?
A: The TGI was > 100 µM.

Q: And the TGI (SF-268 CNS)?
A: The TGI was > 100 µM.

Q: What about the TGI (SF-295 CNS) of the same compound?
A: The TGI was > 100 µM.

Q: And the TGI (SF-539 CNS)?
A: Its TGI is > 100 µM.

Q: What about the TGI (SK-MEL-28 melanoma) of the same compound?
A: The TGI was > 100 µM.

Q: And the TGI (SK-MEL-5 melanoma)?
A: The TGI was > 100 µM.

Q: What about the TGI (SK-OV-3 ovarian) of the same compound?
A: The TGI was > 100 µM.

Q: And the TGI (SN12C renal)?
A: The TGI was > 100 µM.

Q: What about the TGI (SNB-19 CNS) of the same compound?
A: The TGI was > 100 µM.

Q: What about the TGI (SNB-75 CNS) of the same compound?
A: The TGI was > 100 µM.

Q: And the TGI (SNB-78 CNS)?
A: The TGI was > 100 µM.

Q: What about the TGI (SR leukemia) of the same compound?
A: Its TGI is > 100 µM.

Q: What about the TGI (SW-620 colon) of the same compound?
A: Its TGI is > 100 µM.

Q: What about the TGI (TK-10 renal) of the same compound?
A: The TGI was > 100 µM.

Q: And the TGI (U251 CNS)?
A: Its TGI is > 100 µM.

Q: What about the TGI (UACC-257 melanoma) of the same compound?
A: Its TGI is > 100 µM.

Q: What about the TGI (UACC-62 melanoma) of the same compound?
A: Its TGI is > 100 µM.

Q: What about the TGI (UO-31 renal) of the same compound?
A: The TGI was > 100 µM.

Q: And the TGI (XF 498 CNS)?
A: The TGI was > 100 µM.
